Measurements taken from ChEMBL document CHEMBL1773061, “Chiral sulfoxides as metabolites of 2-thioimidazole-based p38α mitogen-activated protein kinase inhibitors: enantioselective synthesis and biological evaluation” (J Med Chem, 2011).
pIC50: −log10 of the molar value.

Each compound was assayed against T1, Mitogen-activated protein kinase 14 (Homo sapiens, UniProt Q16539) (assay: Inhibition of p38 alpha MAPK in human whole blood assessed as phosphorylation of ATF-2 by immunosorbent non-radioactive enzyme assay).
T1 sequence (Q16539 whole entry): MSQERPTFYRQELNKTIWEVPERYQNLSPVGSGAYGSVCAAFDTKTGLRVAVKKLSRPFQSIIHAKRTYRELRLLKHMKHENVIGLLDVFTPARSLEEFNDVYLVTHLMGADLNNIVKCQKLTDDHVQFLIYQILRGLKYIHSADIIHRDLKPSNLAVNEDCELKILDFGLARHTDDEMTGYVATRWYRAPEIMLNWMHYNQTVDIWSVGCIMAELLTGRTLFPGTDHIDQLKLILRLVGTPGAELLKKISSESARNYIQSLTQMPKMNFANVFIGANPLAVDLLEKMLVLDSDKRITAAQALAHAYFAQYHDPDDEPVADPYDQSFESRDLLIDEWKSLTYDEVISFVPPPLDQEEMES
Format: tissue-based
In the case of `CC(C)[S@+]([O-])c1nc(-c2ccnc(NC3CCCCC3)c2)c(-c2ccc(F)cc2)[nH]1`, the pIC50 was 7.68.
`C[S+]([O-])c1nc(-c2ccc(F)cc2)c(-c2ccnc(NC3CCCCC3)c2)[nH]1` (racemic) was tested, and the pIC50 was 7.47.
With `CC(C)[S@@+]([O-])c1nc(-c2ccc(F)cc2)c(-c2ccnc(NC3CCCCC3)c2)[nH]1` the pIC50 was 7.96.
For `CC(C)Nc1cc(-c2nc([S@@+]([O-])C(C)C)[nH]c2-c2ccc(F)cc2)ccn1`, the pIC50 was 8.22.
In the case of `CC(C)Nc1cc(-c2[nH]c([S@+](C)[O-])nc2-c2ccc(F)cc2)ccn1`, the pIC50 was 7.62.
`C[S@+]([O-])c1nc(-c2ccnc(NC(=O)Cc3ccc(F)cc3)c2)c(-c2ccc(F)cc2)[nH]1` gave a pIC50 of 6.85.
With `CSc1nc(-c2ccc(F)cc2)c(-c2ccnc(NC(C)=O)c2)n1C` the pIC50 was 6.73.
`C[S@+]([O-])c1nc(-c2ccnc(NC3CCCCC3)c2)c(-c2ccc(F)cc2)[nH]1` gave a pIC50 of 7.30.
Work on `C[C@H](Nc1cc(-c2nc([S@+](C)[O-])[nH]c2-c2ccc(F)cc2)ccn1)c1ccccc1` yielded a pIC50 of 7.35.
For `C[S@@+]([O-])c1nc(-c2ccc(F)cc2)c(-c2ccnc(NC(=O)Cc3ccc(F)cc3)c2)[nH]1`, the pIC50 was 7.11.
For `CSc1nc(-c2ccnc(NC3CCCCC3)c2)c(-c2ccc(F)cc2)[nH]1`, the pIC50 was 7.57.
Compound `CC(C)[S+]([O-])c1nc(-c2ccc(F)cc2)c(-c2ccnc(NC3CCCCC3)c2)[nH]1` (racemic) has a pIC50 of 7.74.
Work on `C[S@+]([O-])c1nc(-c2ccnc(NC3CCOCC3)c2)c(-c2ccc(F)cc2)[nH]1` yielded a pIC50 of 7.47.

These compounds were tested against T1, Mitogen-activated protein kinase 14 (assay: Inhibition of p38 alpha MAPK in human whole blood assessed as phosphorylation of ATF-2 by immunosorbent non-radioactive enzyme assay relative to SB203580).
Format: tissue-based
`CSc1nc(-c2ccc(F)cc2)c(-c2ccnc(NC3CCOCC3)c2)[nH]1` gave a Ratio IC50 of 9.8.
Work on `CC(C)[S@+]([O-])c1nc(-c2ccc(F)cc2)c(-c2ccnc(NC3CCCCC3)c2)[nH]1` yielded a Ratio IC50 of 1.62.
Work on `CC(=O)Nc1cc(-c2[nH]c([S@@+](C)[O-])nc2-c2ccc(F)cc2)ccn1` yielded a Ratio IC50 of 0.55.
Compound `C[S@+]([O-])c1nc(-c2ccc(F)cc2)c(-c2ccnc(NC3CCCCC3)c2)[nH]1` has a Ratio IC50 of 1.48.
For `CC(C)Sc1nc(-c2ccc(F)cc2)c(-c2ccnc(NC3CCCCC3)c2)[nH]1`, the Ratio IC50 was 4.17.
Work on `CC(C)Nc1cc(-c2[nH]c([S@@+]([O-])C(C)C)nc2-c2ccc(F)cc2)ccn1` yielded a Ratio IC50 of 6.17.
In the case of `CSc1nc(-c2ccc(F)cc2)c(-c2ccnc(NC3CCCCC3)c2)[nH]1`, the Ratio IC50 was 2.89.
With `CC(C)Nc1cc(-c2[nH]c([S@@+](C)[O-])nc2-c2ccc(F)cc2)ccn1` the Ratio IC50 was 5.08.
In the case of `CC(C)[C@H](C)Nc1cc(-c2[nH]c([S@@+](C)[O-])nc2-c2ccc(F)cc2)ccn1`, the Ratio IC50 was 3.05.
`CC(C)Nc1cc(-c2[nH]c([S@+]([O-])C(C)C)nc2-c2ccc(F)cc2)ccn1` showed a Ratio IC50 of 9.25.
Compound `CSc1nc(-c2ccc(F)cc2)c(-c2ccnc(NC(=O)Cc3ccc(F)cc3)c2)[nH]1` has a Ratio IC50 of 3.44.
Compound `C[C@@H](Nc1cc(-c2[nH]c([S@@+](C)[O-])nc2-c2ccc(F)cc2)ccn1)c1ccccc1` has a Ratio IC50 of 0.49.
In the case of `C[C@H](Nc1cc(-c2[nH]c([S@+](C)[O-])nc2-c2ccc(F)cc2)ccn1)c1ccccc1`, the Ratio IC50 was 0.62.
In the case of `C[S+]([O-])c1nc(-c2ccc(F)cc2)c(-c2ccnc(NC3CCCCC3)c2)[nH]1` (racemic), the Ratio IC50 was 1.68.
In the case of `C[S@@+]([O-])c1nc(-c2ccc(F)cc2)c(-c2ccnc(NC3CCOCC3)c2)[nH]1`, the Ratio IC50 was 4.45.
Compound `CC(C)[S@@+]([O-])c1nc(-c2ccc(F)cc2)c(-c2ccnc(NC3CCCCC3)c2)[nH]1` has a Ratio IC50 of 3.09.
`CC(C)Nc1cc(-c2[nH]c([S@+](C)[O-])nc2-c2ccc(F)cc2)ccn1` was tested, and the Ratio IC50 was 2.54.
Compound `C[S@+]([O-])c1nc(-c2ccc(F)cc2)c(-c2ccnc(NC(=O)Cc3ccc(F)cc3)c2)[nH]1` has a Ratio IC50 of 0.55.
`C[S@+]([O-])c1nc(-c2ccc(F)cc2)c(-c2ccnc(NC3CCOCC3)c2)[nH]1` was tested, and the Ratio IC50 was 1.38.
Compound `CSc1nc(-c2ccc(F)cc2)c(-c2ccnc(NC(C)=O)c2)n1C` has a Ratio IC50 of 0.28.
For `CC(C)[C@@H](C)Nc1cc(-c2[nH]c([S@+](C)[O-])nc2-c2ccc(F)cc2)ccn1`, the Ratio IC50 was 1.44.
With `C[S@@+]([O-])c1nc(-c2ccc(F)cc2)c(-c2ccnc(NC(=O)Cc3ccc(F)cc3)c2)[nH]1` the Ratio IC50 was 1.
Compound `CC(C)[S+]([O-])c1nc(-c2ccc(F)cc2)c(-c2ccnc(NC3CCCCC3)c2)[nH]1` (racemic) has a Ratio IC50 of 2.17.

These compounds were tested against T1, Mitogen-activated protein kinase 14 (assay: Inhibition of p38 alpha MAPK in human whole blood assessed as suppression of LPS-induced TNF-alpha release by immunosorbent non-radioactive enzyme assay).
Format: tissue-based
With `CC(C)[S@+]([O-])c1nc(-c2ccnc(NC3CCCCC3)c2)c(-c2ccc(F)cc2)[nH]1` the pIC50 was 6.47.
Compound `CSc1nc(-c2ccnc(NC3CCOCC3)c2)c(-c2ccc(F)cc2)[nH]1` has a pIC50 of 6.74.
`C[S+]([O-])c1nc(-c2ccc(F)cc2)c(-c2ccnc(NC3CCCCC3)c2)[nH]1` (racemic) showed a pIC50 of 6.21.
`CC(C)[S@@+]([O-])c1nc(-c2ccc(F)cc2)c(-c2ccnc(NC3CCCCC3)c2)[nH]1` was tested, and the pIC50 was 6.60.
Compound `CC(C)Nc1cc(-c2nc([S@@+]([O-])C(C)C)[nH]c2-c2ccc(F)cc2)ccn1` has a pIC50 of 6.21.
`CC(C)Nc1cc(-c2[nH]c([S@+](C)[O-])nc2-c2ccc(F)cc2)ccn1` showed a pIC50 of 6.08.
`C[S@+]([O-])c1nc(-c2ccnc(NC(=O)Cc3ccc(F)cc3)c2)c(-c2ccc(F)cc2)[nH]1` was tested, and the pIC50 was 5.12.
`C[S@+]([O-])c1nc(-c2ccnc(NC3CCCCC3)c2)c(-c2ccc(F)cc2)[nH]1` showed a pIC50 of 6.23.
`CSc1nc(-c2ccnc(NC(=O)Cc3ccc(F)cc3)c2)c(-c2ccc(F)cc2)[nH]1` was tested, and the pIC50 was 5.53.
`C[C@H](Nc1cc(-c2nc([S@+](C)[O-])[nH]c2-c2ccc(F)cc2)ccn1)c1ccccc1` gave a pIC50 of 5.26.
`C[S@@+]([O-])c1nc(-c2ccc(F)cc2)c(-c2ccnc(NC(=O)Cc3ccc(F)cc3)c2)[nH]1` gave a pIC50 of 5.19.
With `CSc1nc(-c2ccnc(NC3CCCCC3)c2)c(-c2ccc(F)cc2)[nH]1` the pIC50 was 6.77.
`CC(C)[S+]([O-])c1nc(-c2ccc(F)cc2)c(-c2ccnc(NC3CCCCC3)c2)[nH]1` (racemic) gave a pIC50 of 5.97.
`C[S@+]([O-])c1nc(-c2ccnc(NC3CCOCC3)c2)c(-c2ccc(F)cc2)[nH]1` showed a pIC50 of 6.08.

Each compound was assayed against T1, Mitogen-activated protein kinase 14 (assay: Inhibition of p38 alpha MAPK in human whole blood assessed as suppression of LPS-induced TNF-alpha release by immunosorbent non-radioactive enzyme assay relative to SB203580).
Format: tissue-based
Work on `CSc1nc(-c2ccc(F)cc2)c(-c2ccnc(NC3CCOCC3)c2)[nH]1` yielded a Ratio IC50 of 10.7.
In the case of `CC(C)[S@+]([O-])c1nc(-c2ccc(F)cc2)c(-c2ccnc(NC3CCCCC3)c2)[nH]1`, the Ratio IC50 was 5.62.
`C[S@+]([O-])c1nc(-c2ccc(F)cc2)c(-c2ccnc(NC3CCCCC3)c2)[nH]1` gave a Ratio IC50 of 2.08.
For `CC(C)Sc1nc(-c2ccc(F)cc2)c(-c2ccnc(NC3CCCCC3)c2)[nH]1`, the Ratio IC50 was 2.86.
`CC(C)Nc1cc(-c2[nH]c([S@@+]([O-])C(C)C)nc2-c2ccc(F)cc2)ccn1` was tested, and the Ratio IC50 was 3.13.
`CSc1nc(-c2ccc(F)cc2)c(-c2ccnc(NC3CCCCC3)c2)[nH]1` showed a Ratio IC50 of 7.24.
Work on `CC(C)Nc1cc(-c2[nH]c([S@@+](C)[O-])nc2-c2ccc(F)cc2)ccn1` yielded a Ratio IC50 of 3.62.
Work on `CC(C)[C@H](C)Nc1cc(-c2[nH]c([S@@+](C)[O-])nc2-c2ccc(F)cc2)ccn1` yielded a Ratio IC50 of 8.5.
With `CC(C)Nc1cc(-c2[nH]c([S@+]([O-])C(C)C)nc2-c2ccc(F)cc2)ccn1` the Ratio IC50 was 4.24.
Compound `CSc1nc(-c2ccc(F)cc2)c(-c2ccnc(NC(=O)Cc3ccc(F)cc3)c2)[nH]1` has a Ratio IC50 of 0.66.
`C[C@H](Nc1cc(-c2[nH]c([S@+](C)[O-])nc2-c2ccc(F)cc2)ccn1)c1ccccc1` gave a Ratio IC50 of 0.28.
In the case of `C[S+]([O-])c1nc(-c2ccc(F)cc2)c(-c2ccnc(NC3CCCCC3)c2)[nH]1` (racemic), the Ratio IC50 was 1.98.
`C[S@@+]([O-])c1nc(-c2ccc(F)cc2)c(-c2ccnc(NC3CCOCC3)c2)[nH]1` gave a Ratio IC50 of 2.15.
Compound `CC(C)[S@@+]([O-])c1nc(-c2ccc(F)cc2)c(-c2ccnc(NC3CCCCC3)c2)[nH]1` has a Ratio IC50 of 7.64.
`CC(C)Nc1cc(-c2[nH]c([S@+](C)[O-])nc2-c2ccc(F)cc2)ccn1` was tested, and the Ratio IC50 was 2.29.
Work on `C[S@+]([O-])c1nc(-c2ccc(F)cc2)c(-c2ccnc(NC(=O)Cc3ccc(F)cc3)c2)[nH]1` yielded a Ratio IC50 of 0.23.
In the case of `C[S@+]([O-])c1nc(-c2ccc(F)cc2)c(-c2ccnc(NC3CCOCC3)c2)[nH]1`, the Ratio IC50 was 2.05.
Work on `CC(C)[C@@H](C)Nc1cc(-c2[nH]c([S@+](C)[O-])nc2-c2ccc(F)cc2)ccn1` yielded a Ratio IC50 of 2.07.
`C[S@@+]([O-])c1nc(-c2ccc(F)cc2)c(-c2ccnc(NC(=O)Cc3ccc(F)cc3)c2)[nH]1` was tested, and the Ratio IC50 was 0.27.
With `CC(C)[S+]([O-])c1nc(-c2ccc(F)cc2)c(-c2ccnc(NC3CCCCC3)c2)[nH]1` (racemic) the Ratio IC50 was 1.72.
